Assay results published in patent publication US20240059740A1, “CYCLIC PEPTIDES AND USES THEREOF” (PRE[…] INC., priority 2020, published 2024).
Residues, ends and D or L forms follow the SMILES beside them.

Assays:
MMP-2 mRNA = experiment: Real time RT-PCR, MMP-2 mRNA expression; type: cell-based, human
Source text: The real-time reverse transcription polymerase chain reaction (RT-PCR) uses fluorescent reporter molecules to monitor the production of amplification products during each cycle of the PCR reaction. This combines the nucleic acid amplification and detection steps into one homogeneous assay and use of appropriate chemistries and data analysis eliminates the need for Southern blotting or DNA sequencing for amplicon identification. Its simplicity, specificity and sensitivity, together with its potential for high throughput and the ongoing introduction of new chemistries, more reliable instrumentation and improved protocols, has made real-time RT-PCR the benchmark technology for the detection and/or comparison of RNA levels.’
In order to detect and quantify the expression of specific genes at mRNA level, real-time reverse transcriptase polymerase chain reaction (Real time RT-PCR) was performed. Total RNA of samples was isolated and purified using the PureLink® RNA Mini Kit (Life technologies). The concentration of total RNA was detected by NanoDrop 2000 Spectrophotometer (Thermo Scientific). The total RNA (2000 ng) was reverse transcribed using the High-Capacity cDNA Reverse Transcription Kit (Applied Biosystems™).
The primers of target genes were TaqMan™ Gene Expression Assay for human PLAU (Hs01547054_m1), MMP-2 (Hs01548727_m1), MMP-9 (Hs00957562_m1), Snail-1 (Hs00195591_m1), Snail-2 (Hs00161904_m1), N-cadherin (Hs00983056_m1) and Twist (Hs01675818_s1). Relative quantification was done by reference to 18S ribosomal RNA (18S rRNA) and analysed using the comparative critical threshold (Ct) method
The mRNA expression of MMPs was measured using qRT-PCR. This was tested three independent times; the results are shown in Tables 9, 10 and 11 for U251, U87 cells and O81024 cells respectively. Results are reported as percent of the control cells (no treatment). Both MMP-2 and uPA were decreased in U251 by SEQ ID NO.1.

U251 cells = experiment: BME cell invasion assay, U251; type: cell-based, human; conditions: 24 h
Method: To assess whether the ability of SEQ ID NO.1 to inhibit MMP-2 activity and, to a lesser extent, reduce the production of matrix proteinases and downregulate the expression of EMT markers, was of functional consequence in reducing the invasiveness of the GBM cells, the ability of the peptide was tested at the concentrations of 1, 10 and 100 μM (none of which are toxic to cells) to inhibit invasion of the GBM cells through a basement membrane. This assay, described in more detail below, is an in vitro surrogate for measurement of the in vivo invasion by tumour cells of their environment.
The cell invasion assay employs a simplified Boyden chamber-like design that consists of two chambers separated by a filter (an 8 μm polycarbonate (PC) membrane) coated with basement membrane or different extracellular matrix components. The cell suspension is placed in the top chamber and incubated in the presence of test media containing specific chemo-attractants in the bottom chamber. Cells migrate from the top chamber to the bottom of the filter by degrading the coating over the filter pores. Detection of cell invasion is quantified using Calcein AM. Cell dissociation/Calcein AM solution is placed in the bottom chamber to dissociate the migrating cells from the filter. Calcein AM is internalized by the cells, and intracellular-esterases cleave the aceto-methylester (AM) moiety. Free Calcein fluoresces brightly and is used to quantitate the number of cells that have invaded or migrated by comparison with a standard curve (In Vitro Technologies Pty Ltd, (https://lifescience.invitro.com.au/brands/r-and-d-systems/).
The filter was coated with PathClear® growth factor reduced BME. The selected peptides were applied to the cells in both upper and lower wells to make sure the concentration of peptides were the same and the chemoattractant was serum at a concentration of 2% (for adherent U87 & U251 cells) or growth factor mix required in the medium (for non- adherent, 081024 oncospheres).
Cell invasion was determined using CultureCoat® 96 Well Medium BME Cell Invasion assay. Briefly, the cells were pre-starved 24 h before harvest. Then seeding 25,000 per well of cell in the upper chamber with serum free medium together different concentration of peptide. The bottom chamber also added different concentration of peptides with 2% (V/V) serum for GBM adherent cells or growth factor mix for neurosphere cells as chemoattractant. After 24 h incubation, the invading cells were measured by Calcein AM and calculated based on standard curve.
The results are shown in Table 12, the results are expressed as % inhibition.

In the case of CC(C)C[C@@H]1NC(=O)[C@H](C)NC(=O)[C@@H](NC(=O)[C@@H]2CCCN2C(=O)[C@@H](N)CC(C)C)CSSC(C)(C)CNC(=O)CC[C@@H](C(=O)N[C@@H](CCCNC(=N)N)C(N)=O)NC(=O)[C@H](CC(=O)O)NC(=O)[C@H](CC(N)=O)NC1=O [SEQ ID NO: 1, Leu-Pro-c(SSA*-Ala-Leu-Asn-Asp-Glu)-Arg-NH2] (HELM PEPTIDE1{L.P.C.A.L.N.D.E.R.[am]}|CHEM1{[CC(C)(CN[*:2])S[*:1]]}$PEPTIDE1,CHEM1,3:R3-1:R1|PEPTIDE1,CHEM1,8:R3-1:R2$$$V2.0; N-terminus assumed), the “mRNA expression, MMP-2” value (MMP-2 mRNA; 081024 cells, baseline expression level = 1) is reported as 0.91, the “mRNA expression, MMP-2” value (MMP-2 mRNA; U87 cells, baseline expression level = 1) is reported as 0.84 and the “mRNA expression, MMP-2” value (MMP-2 mRNA; U251 cells, relative to control (no treatment), listed as SEQ ID NO. 1) is reported as 0.72. For the same compound, the “mRNA expression, MMP-2” value (MMP-2 mRNA; U251 cells, relative to control (no treatment), listed as SEQ ID NO.1) was “decreased”, the “Invasion Inhibition Index (%)” value (U251 cells; 1 μM) was 13.2% and the “Invasion Inhibition Index (%)” value (U251 cells; 10 μM) was 17.8%. For the same compound, the “Invasion Inhibition Index (%)” value (U251 cells; 100 μM) was 26.7%.
